The source of these data is US20220202929A1, “DRUG-RESISTANT INFLUENZA VIRUS STRAINS” (President and Fellows of Harvard College, priority 2019, published 2022).

Holding throughout (format): cell-based, influenza A virus
The test system of assay [1] is M2 S31N mutant influenza virus strain.
Assay [2] concerns M2 S31N/G34E mutant influenza virus strain.
The subject of assay [3] is M2 S31N/L46P mutant influenza virus strain.
Assay [4] has as its system NA-H274Y mutant influenza virus strain.

A value given as a limit tells only on which side of the number the result lay.

As for `NC12CC3CC(CC(C3)C1)C2` [amantadine], the IC50 (commonly the concentration at which inhibition is half-maximal) is 24.7 µM in assay [1], more than 100 µM in assay [2] and 65.9 µM in assay [3].
With `CCOC(=O)C1=C[C@@H](OC(CC)CC)[C@H](NC(C)=O)[C@@H](N)C1` [oseltamivir], 2670 nM corresponded to half-maximal inhibition in assay [4] (IC50). That is a single-digit micromolar value.
